The values below come from patent publication US8916557B2, “Substituted 4-Aryl-N-phenyl-1,3,5-triazin-2-amines” (Bayer Intellectual Property GmbH, priority 2011, dated 2014).

Assay [1] deals with Caco-2 human colorectal carcinoma. Description: Proliferation assay (crystal violet), Caco-2. The assay is classed as cell-based. As to conditions: CACO-2 cells, read-out: Inhibition of CACO-2 cell proliferation.
In assay [2] the test system is B16F10 mouse melanoma cells. Description: Proliferation assay (crystal violet), B16F10. Particulars: B16-F10, read-out: Inhibition of B16F10 cell proliferation. It is filed as cell-based. How it is done: Cultivated tumour cells (NCI-H460, human non-small cell lung carcinoma cells, ATCC HTB-177; DU 145, hormone-independent human prostate carcinoma cells, ATCC HTB-81; HeLa-MaTu, human cervical carcinoma cells, EPO-GmbH, Berlin; HeLa-MaTu-ADR, multidrug-resistant human cervical carcinoma cells, EPO-GmbH, Berlin; HeLa human cervical tumour cells, ATCC CCL-2; Caco-2 human colorectal carcinoma, ATCC HTB-37; B16F10 mouse melanoma cells, ATCC CRL-6475) were plated at a density of 5000 cells/well (DU145, HeLa-MaTu-ADR), 3000 cells/well (NCI-H460, HeLa-MaTu, HeLa), 1500 cells/well (Caco-2), or 1000 cells/well (B16F10) in a 96-well multititer plate in 200 μL of their respective growth medium supplemented 10% fetal calf serum. After 24 hours, the cells of one plate (zero-point plate) were stained with crystal violet (see below), while the medium of the other plates was replaced by fresh culture medium (200 μl), to which the test substances were added in various concentrations (0 μM, as well as in the range of 0.001-10 μM; the final concentration of the solvent dimethyl sulfoxide was 0.5%). The cells were incubated for 4 days in the presence of test substances. Cell proliferation was determined by staining the cells with crystal violet: the cells were fixed by adding 20 μl/measuring point of an 11% glutaric aldehyde solution for 15 minutes at room temperature. After three washing cycles of the fixed cells with water, the plates were dried at room temperature. The cells were stained by adding 100 μl/measuring point of a 0.1% crystal violet solution (pH 3.0). After three washing cycles of the stained cells with water, the plates were dried at room temperature. The dye was dissolved by adding 100 μl/measuring point of a 10% acetic acid solution. The extinction was determined by photometry at a wavelength of 595 nm. The change of cell number, in percent, was calculated by normalization of the measured values to the extinction values of the zero-point plate (=0%) and the extinction of the untreated (0 μm) cells (=100%). The IC50 values were determined by means of a 4 parameter fit.

The target in the next assay is T1, CDK9/CycT1 (Homo sapiens, UniProt P50750).
T1 construct: Recombinant full-length His-tagged human CDK9 and CycT1; His; purchased Invitrogen PV4131; host or cells: insect cells
T1 sequence (P50750 whole entry): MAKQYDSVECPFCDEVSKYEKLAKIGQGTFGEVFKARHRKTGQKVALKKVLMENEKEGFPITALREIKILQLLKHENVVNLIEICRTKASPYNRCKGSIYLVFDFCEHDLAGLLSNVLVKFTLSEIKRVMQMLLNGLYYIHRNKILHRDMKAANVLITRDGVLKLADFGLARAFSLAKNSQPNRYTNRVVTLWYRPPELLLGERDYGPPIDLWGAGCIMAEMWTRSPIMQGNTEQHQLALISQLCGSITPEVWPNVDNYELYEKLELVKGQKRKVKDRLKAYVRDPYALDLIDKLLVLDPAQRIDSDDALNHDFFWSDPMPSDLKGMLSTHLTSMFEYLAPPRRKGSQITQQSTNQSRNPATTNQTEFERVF
T1 sequence (O60563 whole entry partner): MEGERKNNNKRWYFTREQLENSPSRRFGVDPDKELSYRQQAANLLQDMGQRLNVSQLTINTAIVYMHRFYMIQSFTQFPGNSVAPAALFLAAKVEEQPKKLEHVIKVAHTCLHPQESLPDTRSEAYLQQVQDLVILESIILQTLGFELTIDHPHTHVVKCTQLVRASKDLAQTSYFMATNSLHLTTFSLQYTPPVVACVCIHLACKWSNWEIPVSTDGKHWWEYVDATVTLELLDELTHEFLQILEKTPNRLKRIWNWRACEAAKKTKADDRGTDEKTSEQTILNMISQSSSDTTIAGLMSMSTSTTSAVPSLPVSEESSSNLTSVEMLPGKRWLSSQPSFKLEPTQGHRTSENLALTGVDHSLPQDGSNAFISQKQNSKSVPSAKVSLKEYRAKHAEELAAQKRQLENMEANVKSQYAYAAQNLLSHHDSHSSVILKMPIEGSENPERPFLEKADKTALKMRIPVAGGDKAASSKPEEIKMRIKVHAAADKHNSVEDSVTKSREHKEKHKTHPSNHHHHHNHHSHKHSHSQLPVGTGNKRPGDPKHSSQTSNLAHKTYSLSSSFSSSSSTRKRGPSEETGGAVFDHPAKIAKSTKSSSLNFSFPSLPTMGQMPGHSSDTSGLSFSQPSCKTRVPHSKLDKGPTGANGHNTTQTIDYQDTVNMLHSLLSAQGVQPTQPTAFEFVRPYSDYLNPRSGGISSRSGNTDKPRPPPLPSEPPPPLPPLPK
Description: CDK9/CycT1 kinase assay (TR-FRET). The assay is classed as biochemical. As to conditions: Method 1, 10 μM ATP. In short, it runs like this: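 Full-length His-tagged human CDK9/CycT1 (insect-cell expressed), 15 min compound pre-incubation, then 25 min at 22 °C with 10 µM ATP (final) and 1 µM biotinylated peptide (final) in Tris pH 8.0/MgCl2 buffer. Phospho-substrate detected by TR-FRET (anti-RB pSer807/pSer811, Eu anti-mouse IgG, streptavidin-XL665); 665/622 nm emission ratio as read-out.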

`CS(=O)(=O)Cc1cccc(Nc2ncnc(-c3ccc(F)cc3OCCF)n2)c1` [Example 61, 4-[4-Fluoro-2-(2-fluoroethoxy)phenyl]-N-{3-[(methylsulfonyl)methyl]phenyl}-1,3,5-triazin-2-amine]: the IC50 in assay [1] came to 1.1 µM; in assay [2] it was 0.74 µM; against CDK9/CycT1, 0.008 µM.

As for `CS(=O)(=O)Cc1cccc(Nc2ncnc(-c3cccc4c3OCCO4)n2)c1` [Example 18, 4-(2,3-Dihydro-1,4-benzodioxin-5-yl)-N-{3-[(methylsulfonyl)methyl]phenyl}-1,3,5-triazin-2-amine], the values for the IC50 (in assay [1]; in assay [2]; against CDK9/CycT1) were 0.69 µM, 0.64 µM and 0.008 µM, respectively.

As for `CS(=O)(=O)Cc1cccc(Nc2ncnc(-c3cccc4c3OCCC4)n2)c1` [Example 12, 4-(3,4-Dihydro-2H-chromen-8-yl)-N-{3-[(methylsulfonyl)methyl]phenyl}-1,3,5-triazin-2-amine], the IC50 is 0.39 µM in assay [1], 0.51 µM in assay [2] and 0.007 µM against CDK9/CycT1.

With `COc1cc(F)ccc1-c1ncnc(Nc2cc(F)cc(CS(C)(=O)=O)c2)n1` [Example 10, 4-(4-Fluoro-2-methoxyphenyl)-N-{3-fluoro-5-[(methylsulfonyl)methyl]phenyl}-1,3,5-triazin-2-amine], the IC50 in assay [2] amounted to 0.27 µM; against CDK9/CycT1 it was 0.006 µM.

As to `CS(=O)(=O)Cc1cccc(Nc2ncnc(-c3ccc(F)cc3OCc3cccc(Cl)c3)n2)c1` [Example 85, 4-{2-[(3-Chlorobenzyl)oxy]-4-fluorophenyl}-N-{3-[(methylsulfonyl)methyl]phenyl}-1,3,5-triazin-2-amine], the figures for the IC50 (in assay [1]; in assay [2]; against CDK9/CycT1) were 0.56 µM, 0.45 µM and 0.007 µM, respectively.

Take `COc1cc(F)ccc1-c1ncnc(Nc2cccc(CS(=O)(=O)C3CCCCC3)c2)n1` [Example 9, N-{3-[(Cyclohexylsulfonyl)methyl]phenyl}-4-(4-fluoro-2-methoxyphenyl)-1,3,5-triazin-2-amine]: the IC50 in assay [1] amounted to 0.58 µM; in assay [2], 1.3 µM; at CDK9/CycT1, 0.01 µM.

Consider `CS(=O)(=O)Cc1cccc(Nc2ncnc(-c3ccc(F)cc3OCc3ccncc3)n2)c1` [Example 89, 4-[4-Fluoro-2-(pyridin-4-ylmethoxy)phenyl]-N-{3-[(methylsulfonyl)methyl]phenyl}-1,3,5-triazin-2-amine], for which the IC50 in assay [1] is 0.31 µM; in assay [2], 0.25 µM; at CDK9/CycT1, 0.005 µM.

For the compound `CCCCOc1cc(F)ccc1-c1ncnc(Nc2cccc(CS(C)(=O)=O)c2)n1` [Example 44, 4-(2-Butoxy-4-fluorophenyl)-N-{3-[(methylsulfonyl)-methyl]phenyl}-1,3,5-triazin-2-amine], the IC50 is 1 µM in assay [1], 0.57 µM in assay [2] and 0.009 µM at CDK9/CycT1.

As to `CCOc1cc(F)ccc1-c1ncnc(Nc2cccc(CS(C)(=O)=O)c2)n1` [Example 42, 4-(2-Ethoxy-4-fluorophenyl)-N-{3-[(methylsulfonyl)-methyl]phenyl}-1,3,5-triazin-2-amine], the IC50 in assay [2] stood at 0.37 µM; against CDK9/CycT1 it was 0.005 µM.

`CS(=O)(=O)Cc1cccc(Nc2ncnc(-c3ccc(Cl)cc3OC3CCCC3)n2)c1` [Example 29, 4-[4-Chloro-2-(cyclopentyloxy)phenyl]-N-{3-[(methylsulfonyl)methyl]phenyl}-1,3,5-triazin-2-amine]: the IC50 in assay [1] is 0.69 µM; in assay [2], 0.64 µM; against CDK9/CycT1, 0.61 µM.

As for `COc1cc(F)ccc1-c1ncnc(Nc2cccc(CS(=O)(=O)C3CC3)c2)n1` [Example 40, N-{3-[(Cyclopropylsulfonyl)methyl]phenyl}-4-(4-fluoro-2-methoxyphenyl)-1,3,5-triazin-2-amine], the IC50 was found to be 0.82 µM in assay [2] and 0.014 µM at CDK9/CycT1.

With `CS(=O)(=O)Cc1cccc(Nc2ncnc(-c3ccccc3OCc3cccc(Cl)c3)n2)c1` [Example 28, 4-{2-[(3-Chlorobenzyl)oxy]phenyl}-N-{3-[(methylsulfonyl)methyl]phenyl}-1,3,5-triazin-2-amine], the values for the IC50 (in assay [1]; in assay [2]; against CDK9/CycT1) were 0.32 µM, 0.39 µM and 0.003 µM, respectively.

Consider `CS(=O)(=O)Cc1cccc(Nc2ncnc(-c3ccc(F)cc3OCc3ccc(C#N)cc3)n2)c1` [Example 90, 4-({5-Fluoro-2-[4-({3-[(methylsulfonyl)methyl]phenyl}amino)-1,3,5-triazin-2-yl]phenoxy}methyl)-benzonitrile], for which the IC50 was determined as 0.31 µM in assay [1], 0.32 µM in assay [2] and 0.003 µM against CDK9/CycT1.

Regarding `CS(=O)(=O)Cc1cccc(Nc2ncnc(-c3ccc(F)cc3OCc3ccccc3)n2)c1` [Example 4, 4-[2-(Benzyloxy)-4-fluorophenyl]-N-{3-[(methylsulfonyl)methyl]phenyl}-1,3,5-triazin-2-amine], the IC50 in assay [2] was determined as 0.13 µM; at CDK9/CycT1 it was 0.003 µM.

Regarding `CS(=O)(=O)Cc1cccc(Nc2ncnc(-c3ccc(F)cc3OCC3CC3)n2)c1` [Example 55, 4-[2-(Cyclopropylmethoxy)-4-fluorophenyl]-N-{3-[(methylsulfonyl)methyl]phenyl}-1,3,5-triazin-2-amine], the results for the IC50 (in assay [1]; in assay [2]; on CDK9/CycT1) were 0.4 µM, 0.96 µM and 0.015 µM, respectively.

Regarding `Cc1cccc(COc2cc(F)ccc2-c2ncnc(Nc3cccc(CS(C)(=O)=O)c3)n2)c1` [Example 83, 4-{4-Fluoro-2-[(3-methylbenzyl)oxy]phenyl}-N-{3-[(methylsulfonyl)-methyl]phenyl}-1,3,5-triazin-2-amine], the IC50 in assay [1] turned out to be 0.74 µM; in assay [2], 0.44 µM; against CDK9/CycT1, 0.005 µM.

In the case of `CS(=O)(=O)Cc1cccc(Nc2ncnc(-c3cc(F)ccc3OCc3cccc(F)c3)n2)c1` [Example 31, 4-{5-Fluoro-2-[(3-fluorobenzyl)oxy]phenyl}-N-{3-[(methylsulfonyl)methyl]phenyl}-1,3,5-triazin-2-amine], the IC50 in assay [2] was found to be 0.28 µM; against CDK9/CycT1 it was 0.004 µM.

As to `CS(=O)(=O)Cc1cccc(Nc2ncnc(-c3ccc(F)cc3OCCCC(F)(F)F)n2)c1` [Example 59, 4-[4-Fluoro-2-(4,4,4-trifluorobutoxy)phenyl]-N-{3-[(methylsulfonyl)methyl]phenyl}-1,3,5-triazin-2-amine], the values for the IC50 (in assay [1]; in assay [2]; on CDK9/CycT1) were 0.57 µM, 0.33 µM and 0.005 µM, respectively.

For the compound `CC#CCOc1cc(F)ccc1-c1ncnc(Nc2cccc(CS(C)(=O)=O)c2)n1` [Example 62, 4-[2-(But-2-yn-1-yloxy)-4-fluorophenyl]-N-{3-[(methylsulfonyl)methyl]phenyl}-1,3,5-triazin-2-amine], the IC50 was determined as 0.24 µM in assay [2] and 0.003 µM against CDK9/CycT1.

Regarding `COc1cc(F)c(F)cc1-c1ncnc(Nc2cccc(CS(C)(=O)=O)c2)n1` [Example 1, 4-(4,5-Difluoro-2-methoxyphenyl)-N-{3-[(methylsulfonyl)methyl]phenyl}-1,3,5-triazin-2-amine], the figures for the IC50 (in assay [2]; against CDK9/CycT1) were 1 µM and 0.014 µM, respectively.

Regarding `COc1cc(F)ccc1-c1ncnc(Nc2ccc(F)c(CS(C)(=O)=O)c2)n1` [Example 33, 4-(4-Fluoro-2-methoxyphenyl)-N-{4-fluoro-3-[(methylsulfonyl)methyl]phenyl}-1,3,5-triazin-2-amine], the IC50 is 0.46 µM in assay [2] and 0.006 µM against CDK9/CycT1.

Consider `CS(=O)(=O)Cc1cccc(Nc2ncnc(-c3ccc(F)cc3OCc3ccnc(Cl)c3)n2)c1` [Example 88, 4-{2-[(2-Chloropyridin-4-yl)methoxy]-4-fluorophenyl}-N-{3-[(methylsulfonyl)-methyl]phenyl}-1,3,5-triazin-2-amine], for which the values for the IC50 (in assay [2]; against CDK9/CycT1) were 0.23 µM and 0.004 µM, respectively.

Turning to `COc1cc(F)ccc1-c1ncnc(Nc2cccc(CS(C)(=O)=O)c2)n1` [Example 3, 4-(4-Fluoro-2-methoxyphenyl)-N-{3-[(methylsulfonyl)methyl]phenyl}-1,3,5-triazin-2-amine], the IC50 in assay [2] is 1.7 µM; against CDK9/CycT1 it was 0.024 µM.
